# According to patent US20120109286A1, “ANTIMICROBIAL COATINGS” (priority 2009, published 2012):
# How the values were obtained:
# Conditions in all cases: 24 h at 37° C.
# [1] = system: P. aeruginosa; assay: Zone of inhibition around monomer pellets; format: cell-based, Pseudomonas aeruginosa
# [2] = system: S. aureus; assay: Zone of inhibition around monomer pellets or powder; format: cell-based, Staphylococcus aureus
# From the text: (§1) ZSB powder was used to show antimicrobial efficacy.
# [3] = system: M. luteus; assay: as above; format: cell-based, Micrococcus luteus
# From the text: as §1
smiles,measurement,setting,value
"O=C1C=CC(=O)[N]1[Ag]([P+](c1ccccc1)(c1ccccc1)c1ccccc1)[P+](c1ccccc1)(c1ccccc1)c1ccccc1 [PSSM, Phosphine Stabilised Silver Maleimide]",zone of inhibition,[1],more blurred inhibition zones
same,zone of inhibition,[2],sharp ring of inhibition
same,zone of inhibition,[3],sharp ring of inhibition
